Measured values taken from US9487561B2, “Biologically active complex and its preparation” (HAMLET PHARMA AB, priority 2010, dated 2016).
Entries after “also recorded” stand apart in the source; their conditions may differ.

B1: HAMLET (protein, UniProt P00709 20-142, looked up)
Alpha-lactalbumin: KQFTKCELSQLLKDIDGYGGIALPELICTMFHTSGYDTQAIVENNESTEYGLFQISNKLWCKSSQVPQSRNICDISCDKFLDDDITDDIMCAKKILDIKGIDYWLAHKALCTEKLEQWLCEKL
modifications: oleic acid complex

Legend:
[1] = test system: lung carcinoma, kidney carcinoma and lymphoma cells; experiment: HAMLET-induced change in cell morphology (light microscopy, real-time imaging); type: cell-based; conditions: light microscopy
Procedure: (§1) Cells were detached from cell culture flasks with versen (0.2 g EDTA in 200 ml H2O and 800 ml PBS), washed with PBS and resuspended in serum-free RPMI-1640. HAMLET dissolved in PBS was incubated with cells (0.5×10^6/ml for A549, A498 and HeLa cells; 1×10^6/ml for Jurkat) at 37° C. FCS was added after 1 hour. Cell death was quantified by trypan blue exclusion (Chroma Gesellschaft Schmid & Co) or by measuring ATP levels (ATPlite Kit, PerkinElmer, Infinite 200, Tecan). Light images were captured using the HOLOMONITOR™ M2 digital holographic microscope (Phase Holographic Imaging AB, Lund, Sweden).
(§2) For live cell imaging, cells were pre-treated with SB202190 for 30 minutes, nuclei were stained with Hoechst 33342 (Invitrogen) and Alexa-Fluor 568-labeled HAMLET (10% labeled HAMLET, Molecular Probes) was added in serum-free medium. FCS was added after 1 hour. Fluorescence was detected with pinhole settings corresponding to 1 airy unit. The cells were kept at 37° C., 5% CO2 and examined unfixed by LSM510 DUO confocal microscopy (Carl Zeiss).
To examine if the HAMLET-induced change in carcinoma cell morphology was modified by the channel inhibitors, lung carcinoma, kidney carcinoma and lymphoma cells were exposed to HAMLET in the presence or absence of ion channel inhibitors and examined by light microscopy (FIG. 2C).
To determine if p38 signaling was involved in cell death, we inhibited p38α and p38β in lung and kidney carcinoma and Jurkat lymphoma cells with two small-molecule p38 inhibitors: SB202190, a highly specific pyridinyl-imidazole inhibitor; and BIRB796, a diaryl urea compound, which bears little structural similarity to SB202190 (Fabian et al., 2005, Nature Biotechnology 23: 329-336), ([…] and FIG. 12B). […] The effect of p38 inhibition on cell death was also observed by real-time confocal imaging of lung carcinoma cells exposed to fluorescently labeled HAMLET.

[2] = test system: lymphoma cells (Jurkat cells); experiment: cell death assay with inhibitors; type: cell-based; conditions: HAMLET 21-35 μM, three hours
Procedure: GAPDH was used as a loading control.
as §1
(§3) For studies with inhibitors, cells were pretreated for 30 minutes. Inhibitors used were Gadolinium chloride (GdCl3, 100 μM), Barium chloride (BaCl2, 1 mM), Ruthenium red (30 μM), tetrandrine (10 μM) and amiloride (1 mM), all from Sigma Aldrich. For p38 inhibition, SB202190 (20 μM, Sigma Aldrich) or BIRB796 (10 μM, Axon Medchem) dissolved in DMSO was used. The wells were washed twice with PBS and new medium with inhibitor was added. For RNA interference, FlexiTube siRNA Premixes against MAPK11 (SI00606053), MAPK14 (SI00300769) and All Star Negative Control siRNA (SI03650318) from Qiagen was used. A549 forward was transfected using 25 nM final siRNA concentration in 24-well plate. After 48 hours, knockdown was examined by Western blot (anti-p38, 1:1000, Cell Signaling) and RT-PCR (MAPK14, QT00079345, QIAGEN).
(§4) To examine if functional ion channels are important for the tumoricidal activity of HAMLET, A549 lung carcinoma cells in suspension were pretreated with the channel inhibitors for 30 minutes and exposed to increasing concentrations of HAMLET for three hours.

tumor cells = experiment: internalization of Alexa-fluor labeled HAMLET (confocal microscopy); type: cell-based; conditions: HAMLET 35 μM, 1 hour
Procedure: FIG. 2. Ion channel inhibitors rescue carcinoma cells from death and block HAMLET uptake and morphologic change. (A) Viability of lung carcinoma cells after exposure to HAMLET (21 or 35 μM, 3 h), quantified by trypan blue exclusion. […] (B) BaCl2 and amiloride prevented carcinoma cells from changing their morphology in response to HAMLET (Mean of two images in one experiment+SEMs). (C) Internalization of Alexa-fluor labeled HAMLET by tumor cells (35 μM, 1 hour), visualized by confocal microscopy. […] GAPDH was the loading control. (E) The transcriptomic response to HAMLET requires functional ion channels.
as §2

(HeLa cells) = experiment: cell death assay with ion channel inhibitors; type: cell-based; conditions: HAMLET 21-35 μM, three hours
Procedure: as §1
as §3, with “After 48 hours, knockdown was examined by Western blot (anti-p38, 1:1000, Cell Signaling) and RT-PCR (MAPK14, QT00079345, QIAGEN).” left out

[3] = test system: A549 lung carcinoma cells; experiment: cell death assay (trypan blue exclusion, ATP levels); type: cell-based, human; conditions: for effect of channel inhibitor on HAMLET-induced cell death: 30 minutes pretreatment, HAMLET three hours; for tumoricidal effect (trypan blue exclusion, ATP): Example 2, 3 hours, molar concentrations based on stoichiometry in HAMLET, dose response
Procedure: as §1, §3, §4
A549 cells were seeded to a density of 0.8-1.0×10^6 cells/well in RPMI without FCS. Different volumes of HAMLET/oleate and oleic acid solutions were added. The cells were incubated for 1 hour at 37° C. 5% CO2 for 1 hour before 50 μl of FCS (5% final concentration) were added to the wells. The cells were then further incubated for additional 2 hours before the viability were determined by trypan blue exclusion and ATP measurements.

[4] = test system: A549 lung carcinoma cells; experiment: global transcriptional response, whole genome arrays (Affymetrix); type: cell-based, human
Procedure: For the microarray analysis with ion channel inhibitors, 200,000 A549 cells/well were allowed to adhere overnight on a 6-well plate. After 1 hour of HAMLET treatment, the cells were lysed and RNA was extracted using the RNeasy Mini Kit (QIAGEN). The samples were sent to AROS Applied Biotechnology (Århus, Denmark) for analysis. Data was preprocessed using RMA implemented in the free software packages “affy” as provided by R and Bioconductor (<www.r-project.org>). Differentially expressed genes were identified using empirically Bayes adjusted t-statistics and characterized using the Functional Annotation Clustering Tool in the Database for Annotation, Visualization and Integrated Discovery (DAVID), (Dennis et al., 2003 Genome Biology 4(5): P3) and Ingenuity Pathway Analysis (Ingenuity Systems). All microarray data were registered into NCBI's Gene Expression Omnibus (GEO) database (<www.ncbi.nlm.nih.gov/projects/geo>) with accession numbers GSE23772.
To understand the mechanisms of carcinoma cell death and the contribution of ion channel activation, the global transcriptional response to HAMLET was examined, using whole genome arrays. A549 lung carcinoma cells were exposed to HAMLET (21 μM) for one hour and cells pretreated with amiloride were compared to cells in medium alone. […] An unbiased global overview of transcription was obtained by performing a hierarchical clustering of the top 3000 genes by variance and was visualized in a heatmap (FIG. 2D and FIG. 13). Genes with empirical Bayes adjusted p-values <0.05 and log 2 fold changes >1 were considered differentially expressed and were functionally characterized using Database for Annotation, Visualization and Integrated Discovery, (Dennis et al., supra, 2003) and Ingenuity Pathway Analysis.
In total 12 RNA samples were generated (triplicate of control, oleic Acid, HAMLET, and oleate-treated) and hybridized to Affymetrix Whole Genome microarrays U219. […] For statistical analysis normalized data were linear model fitted and Empirical Bayesian analysis, coupled with p-value adjustment, performed.

Jurkat cells = experiment: sodium influx, CoroNa Green Sodium indicator; type: cell-based; conditions: 10-minute measurement period
Procedure: Sodium influx in Jurkat cells was measured by using CoroNa Green Sodium indicator. The fluorescence was quantified every 20-second interval for a 10-minute total measurement period.

[5] = Example 5, Affymetrix U219, adjusted p-value <0.05 and log 2-foldchange of 1

Molecule	effect of ion channel inhibitor on HAMLET-induced change in cell morphology [1]	rescue from HAMLET-induced cell death [2]	effect of inhibitor on internalization of HAMLET (tumor cells)	rescue from HAMLET-induced cell death ((HeLa cells))	effect of channel inhibitor on HAMLET-induced cell death [3]	effect of inhibitor alone on transcription [4]	number of differentially expressed genes in response to HAMLET in cells pretreated with inhibitor ([4]; HAMLET 21 μM, one hour) [genes]	sodium influx (fluorescence signal) (Jurkat cells)	number of differentially expressed genes [4, 5] [genes]	global transcriptional response (heatmap, top 3000 genes by variance) ([4]; FIG. 7B)	tumoricidal effect (trypan blue exclusion, ATP) [3]	concentration at which tumor cells were killed, relative to concentration in HAMLET ([3]; Example 2, dose response)	tumoricidal effect at concentrations corresponding to 15× that of HAMLET (35 μM) ([3]; FIG. 7F, cell line not stated)	number of differentially expressed genes ([4]; HAMLET 21 μM, one hour, no inhibitor, adjusted p-values <0.05, log 2 fold changes >1) [genes]	lethal response (trypan blue exclusion, ATP levels) ([3]; increasing concentrations, three hours, no inhibitors)
[Ba+2].[Cl-].[Cl-] [BaCl2, barium chloride]	maintained their normal morphology	rescue effect	inhibited internalization	rescue effect	markedly reduced cell death										
NC(N)=NC(=O)c1nc(Cl)c(N)nc1N [amiloride, 3,5-diamino-6-chloro-N-(diaminomethylene)pyrazine-2-carboxamide]	maintained their normal morphology	rescue effect	inhibited internalization	rescue effect	markedly reduced cell death	no significant effect on transcription	52								
CCCCCCCC/C=C\CCCCCCCC(=O)[O-].[Na+] [oleate, sodium oleate]								did not trigger a sodium flux	426	very similar transcriptional response	tumoricidal; also recorded: stronger than that of oleic acid	three to five times higher than the concentration in HAMLET	not tumoricidal		
B1								immediate increase of fluorescence signal	336		kills tumor cells more efficiently than protein free oleate or oleic acid			336	rapid, dose-dependent lethal response
